Reference: patent EP4741383A1, “COMPOUND AND USE THEREOF AS ANTI-CANCER DRUG” (Tyligand Bioscience (Shanghai) Limited, priority 2023, dated 2025)

tested on: HCT116; assay: CellTiter-Glo cell proliferation inhibition, HCT116; type: cell-based; conditions: Homo sapiens, HCT-116; HCT116 (colorectal cancer cell line), 72 hours; read-out: Example IC50 (µM) HCT116
Excerpt: This experiment used the CellTiter-Glo® Luminescent Cell Viability Assay kit from Promega to evaluate the inhibitory activity of the disclosed compounds on the proliferation of the following cell lines: 4T1 (mouse breast cancer cell line), A20 (mouse B-cell lymphoma cell line), A2780 (human ovarian cancer cell line), AsPC-1 (pancreatic cancer cell line), B16F10 (mouse melanoma cell line), BT549 (human breast cancer cell line), CT26 (mouse colon cancer cell line), EMT6 (mouse breast cancer cell line), HCT116 (colorectal cancer cell line), Jurket (acute leukemia cell line), KP-4 (pancreatic cancer cell line), LL/2 (mouse lung cancer cell line), MCF7 (breast cancer cell line), […] NCI-H358 (lung cancer cell line), NCI-H727 (gastric cancer cell line), NCI-1944 (lung cancer cell line), Pan 04.03 (pancreatic cancer cell line), SK-BR-3 (breast cancer cell line), THP-1 (leukemia cell line), TOV21G (ovarian cancer cell line), U87MG (glioblastoma cell line), and UM-UC-a (bladder cancer cell line).
All cell lines were purchased from Nanjing Kebai Biotechnology Co., Ltd. The following materials were also used in the experiment: RPMI-1640 media (HyClone, catalog number #SH30022.01), McCoy's 5A media (Thermo Fisher, catalog number #16600-082), MCDB 105 media (Sigma, catalog number #117-500), Medium 199 (Thermo Fisher, catalog number #11150-059), MEM media (Thermo Fisher, catalog number #11095-080), DMEM media (HyClone, catalog number #SH30027.01), fetal bovine serum (FBS) (ExCell, catalog number # M4530), Sodium Pyruvate (100Mm) (Thermo Fisher, catalog number #11360-070), and MEM NEAA (100X) (Thermo Fisher). […]
Cells were cultured according to the instructions provided by the cell supplier (Nanjing Kebai Biotechnology Co., Ltd.). […] Suspension or adherent cells were collected, and cell viability was determined using the trypan blue exclusion method, ensuring that cell viability was above 90%. […]

Structure (SMILES) | IC50
O=C(Nc1ccc(-c2csc(CO)c2)cc1)C(=O)Nc1ccc(-c2cc3cc(F)c(-c4nnn[nH]4)cc3n2C2CCC2)cc1 [Example 1] | 0.111 µM
CC1(n2c(-c3ccc(NC(=O)C(=O)Nc4ccc(N5CCC6(CCOC6)CC5)cc4)cc3)cc3cc(F)c(-c4nnn[nH]4)cc32)CCC1 [Example 68] | 0.078 µM
O=C(Nc1ccc(-c2cc3cc(F)c(-c4nnn[nH]4)cc3n2C2CCC2)cc1)C(=O)Nc1ccc(N2CCC3(CCC(O)C3)CC2)cc1 (stereo not drawn) [Example 100] | 0.044 µM
